The molecule `N#Cc1cc(F)ccc1-c1cncc(O[C@@H]2SC[C@@H](O)[C@H](O)[C@H]2O)c1` [Example 148, 5-(2-cyano-4-fluorophenyl)-3-pyridinyl 5-thio-β-D-xylopyranoside] registered a melting point of 198 to 200 °C. The figure for `O[C@@H]1[C@@H](O)[C@H](Oc2cncc(-c3ccc(N4CCCCC4)cc3)c2)SC[C@H]1O` [Example 48, 5-[4-(1-piperidinyl)phenyl]-3-pyridinyl 5-thio-β-D-xylopyranoside] is 196 °C; for `COc1ccc(-c2nccc(C)c2O[C@@H]2SC[C@@H](O)[C@H](O)[C@H]2O)cc1` [Example 75, 2-(4-methoxyphenyl)-4-methyl-3-pyridinyl 5-thio-β-D-xylopyranoside] it is 101 °C. Then `CN(C)c1ccc(-c2cncc(O[C@@H]3SC[C@@H](O)[C@H](O)[C@H]3O)c2)cc1` [Example 50, 5-[4-(dimethylamino)phenyl]-3-pyridinyl 5-thio-β-D-xylopyranoside], with 240 °C. The figure for `Cc1ccc(-c2cncc(O[C@@H]3SC[C@@H](O)[C@H](O)[C@H]3O)c2)cc1F` [Example 107, 5-(3-fluoro-4-methylphenyl)-3-pyridinyl 5-thio-β-D-xylopyranoside] is 213 °C. In turn, `COc1ccc(-c2ccc(O[C@@H]3SC[C@@H](O)[C@H](O)[C@H]3O)cn2)cc1` [Example 93, 6-(4-methoxyphenyl)-3-pyridinyl 5-thio-β-D-xylopyranoside] showed a melting point of 164 °C. Then `O[C@@H]1[C@@H](O)[C@H](Oc2ccc(-c3ccc(F)cc3)nc2)SC[C@H]1O` [Example 129, 6-(4-fluorophenyl)-3-pyridinyl 5-thio-β-D-xylopyranoside], with 180 to 183 °C; and `CCN(CC)C(=O)c1cncc(O[C@@H]2SC[C@@H](O)[C@H](O)[C@H]2O)c1` [Example 160, 5-[(N,N-diethylamino)carbonyl]-3-pyridinyl 5-thio-β-D-xylopyranoside], with 143 °C. Then `O[C@@H]1[C@@H](O)[C@H](Oc2cccnc2-c2ccc(F)cc2)SC[C@H]1O` [Example 73, 2-(4-fluorophenyl)-3-pyridinyl 5-thio-β-D-xylopyranoside], with 110 °C; and `COc1ccc(-c2cncc(O[C@@H]3SC[C@@H](O)[C@H](O)[C@H]3O)c2)c(C)c1` [Example 105, 5-(4-methoxy-2-methylphenyl)-3-pyridinyl 5-thio-β-D-xylopyranoside], with 231 °C; and `N#Cc1ccc(-c2cncc(O[C@@H]3SC[C@@H](O)[C@H](O)[C@H]3O)c2)cc1F` [Example 91, 5-(4-cyano-3-fluorophenyl)-3-pyridinyl 5-thio-β-D-xylopyranoside], with 214 °C. For the molecule `Cc1cc(C#N)ccc1-c1cncc(O[C@@H]2SC[C@@H](O)[C@H](O)[C@H]2O)c1` [Example 154, 5-(4-cyano-2-methylphenyl)-3-pyridinyl 5-thio-β-D-xylopyranoside], the melting point lay in the range of 202 to 206 °C. Then `COc1cc(F)ccc1-c1cncc(O[C@@H]2SC[C@@H](O)[C@H](O)[C@H]2O)c1` [Example 87, 5-(4-fluoro-2-methoxyphenyl)-3-pyridinyl 5-thio-β-D-xylopyranoside], with 218 to 228 °C; and `O=S(=O)(c1ccccc1)c1cncc(O[C@@H]2SC[C@@H](O)[C@H](O)[C@H]2O)c1` [Example 140, 5-(phenylsulfonyl)-3-pyridinyl 5-thio-β-D-xylopyranoside], with 86 °C. `CC(=O)c1cccc(-c2ccc(O[C@@H]3SC[C@@H](O)[C@H](O)[C@H]3O)cn2)c1` [Example 124, 6-(3-acetylphenyl)-3-pyridinyl 5-thio-β-D-xylopyranoside] gave a melting point of 159 to 163 °C. Then `COc1ccc(-c2cc(O[C@@H]3SC[C@@H](O)[C@H](O)[C@H]3O)ccn2)cc1` [Example 77, 2-(4-methoxyphenyl)-4-pyridinyl 5-thio-β-D-xylopyranoside], with 150 to 154 °C; and `O=C(NCc1ccccc1)c1ccc(O[C@@H]2SC[C@@H](O)[C@H](O)[C@H]2O)cn1` [Example 117, 6-{[(phenylmethyl)amino]carbonyl}-3-pyridinyl 5-thio-β-D-xylopyranoside], with 89 to 91 °C; and `N#Cc1ccc(-c2cncc(O[C@@H]3SC[C@@H](O)[C@H](O)[C@H]3O)c2)cc1C#N` [Example 156, 5-(3,4-dicyanophenyl)-3-pyridinyl 5-thio-β-D-xylopyranoside], with 192 °C.

`COc1ccc(-c2cncc(O[C@@H]3SC[C@@H](O)[C@H](O)[C@H]3O)c2)cc1OC` [Example 71, 5-(3,4-dimethoxyphenyl)-3-pyridinyl 5-thio-β-D-xylopyranoside] registered a melting point of 211 °C. Then `Cc1ccc(-c2cncc(O[C@@H]3SC[C@@H](O)[C@H](O)[C@H]3O)c2)cc1` [Example 52, 5-(4-methylphenyl)-3-pyridinyl 5-thio-β-D-xylopyranoside], with 228 °C.

In turn, `O[C@@H]1[C@@H](O)[C@H](Oc2cncc(-c3ccc(F)cc3F)c2)SC[C@H]1O` [Example 85, 5-(2,4-difluorophenyl)-3-pyridinyl 5-thio-β-D-xylopyranoside] showed a melting point of 221 °C.

For `N#Cc1ccc(-c2cncc(O[C@@H]3SC[C@@H](O)[C@H](O)[C@H]3O)c2)cc1Cl`, the melting point was 202 to 204 °C. Then `CC(=O)O[C@@H]1[C@@H](OC(C)=O)[C@H](OC(C)=O)CS[C@H]1Oc1cncc(C(C)=O)c1` [Example 118, 5-acetyl-3-pyridinyl 2,3,4-tri-O-acetyl-5-thio-β-D-xylopyranoside], with 157 °C; and `CS(=O)(=O)c1cncc(O[C@@H]2SC[C@@H](O)[C@H](O)[C@H]2O)c1` [Example 115, 5-methylsulfonyl-3-pyridinyl 5-thio-β-D-xylopyranoside], with 183 °C; and `COc1c(C)cc(-c2cncc(O[C@@H]3SC[C@@H](O)[C@H](O)[C@H]3O)c2)cc1C` [Example 83, 5-(3,5-dimethyl-4-methoxyphenyl)-3-pyridinyl 5-thio-β-D-xylopyranoside], with 173 °C.

As to `Cc1ccc(-c2cncc(O[C@@H]3SC[C@@H](O)[C@H](O)[C@H]3O)c2)cc1C` [Example 109, 5-(3,4-dimethylphenyl)-3-pyridinyl 5-thio-β-D-xylopyranoside], the melting point is 184 °C. The figure for `O[C@@H]1[C@@H](O)[C@H](Oc2cncc(Oc3ccccc3)c2)SC[C@H]1O` [Example 26, 5-phenoxy-3-pyridinyl 5-thio-β-D-xylopyranoside] is 226 °C; for `O[C@@H]1[C@@H](O)[C@H](Oc2cccnc2-c2ccccc2)SC[C@H]1O` [Example 24, 2-phenyl-3-pyridinyl 5-thio-β-D-xylopyranoside] it is 89 to 108 °C; for `COc1c(F)cc(-c2cncc(O[C@@H]3SC[C@@H](O)[C@H](O)[C@H]3O)c2)cc1F` [Example 146, 5-(3,5-difluoro-4-methoxyphenyl)-3-pyridinyl 5-thio-β-D-xylopyranoside] it is 203 °C. Take `CC(C)Oc1ccc(-c2cncc(O[C@@H]3SC[C@@H](O)[C@H](O)[C@H]3O)c2)cc1` [Example 69, 5-[4-(1-methylethoxy)phenyl]-3-pyridinyl 5-thio-β-D-xylopyranoside]: the melting point amounted to 158 °C.
